Source: publication PMC8214221, “Sequence determinants in the cathelicidin LL-37 that promote inflammation via presentation of RNA to scavenger receptors” (The Journal of Biological Chemistry, 2021)
Residues, ends and D or L forms follow the SMILES beside them.

How the values were obtained:
[1] = test system: NHEKs, IL-6 secretion in response to U1 dsRNA; test: IL-6 secretion ELISA in NHEKs; format: cell-based, human; details: U1 dsRNA 2.5 μg/ml + peptide 2 μM, 18 h, n = 3
Outline: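 NHEKs (also HDMECs) exposed to LL-34 parent or alanine-scan peptides at 2 μM, alone or with U1 dsRNA (2.5 μg/ml), for 18 h. Secreted IL-6 in supernatant quantified by sandwich ELISA (n = 3).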

[2] = test system: NHEKs, IL6, IFNB1, TSLP, CXCL10 mRNA; test: qRT-PCR gene expression in NHEKs; format: cell-based, human; details: 18 h / 8 h (Fig. 1 legend), n = 3; for Gene expression of IL6, IFNB1, and CXCL10, cotreatment with U1 dsRNA: U1 dsRNA 2.5 μg/ml + peptide 2 μM; for Gene expression of TSLP, peptide alone / Basal expression of IL6, IFNB1, and CXCL10, peptide alone: peptide 2 μM alone; for Gene expression of TSLP, peptide alone: GAPDH reference
Description: Protein levels of human IL-6 were analyzed from cell supernatant with ELISA (n = 3). Corresponding MIC values of LL-34 peptides L1A–R34A against Staphylococcus aureus USA300 are shown in the heat map. B, human dermal endothelial cells (HDMECs) were treated with either U1 dsRNA (2.5 μg/ml) or a combination of U1 dsRNA (2.5 μg/ml) and LL-34 peptides (Pep 1–Pep 34 and Pep–parent LL-34) at 2 μM for 18 h. IL-6 ELISA results are shown (n = 3). Green bars denote loss of IL-6 protein secretion compared with parent control shown in red. C, helical wheel plot for LL-34. Amino acids with green circles denote specific residues where replacement with an alanine caused the loss of IL-6 secretion compared with parent LL-34 peptide in NHEKs cotreated with U1 dsRNA. D, in the helical wheel plot for LL-34, circled green amino acids indicate that a substitution caused a loss of vetting in HDMEC. E–H, NHEKs were treated with LL-34-parent peptide (LL-34-P), LL-34-F5A, LL-34-I24A, LL-34-F27A, and LL-34-L31A at 2 μM, either individually or in combination with U1 dsRNA (2.5 μg/ml) for 8 h. Gene expression of IL-6, IFNB1, TSLP, and CXCL10 was assessed with qRT-PCR. GAPDH was used as a reference gene (n = 3) (∗p < 0.05; ∗∗∗∗p < 0.0001). One way-ANOVA was used. IL-6, interleukin 6; LL-34, 34-amino acid peptide; MIC, minimum inhibitory concentration, ns, not significant.
We further looked at mRNA abundance by quantitative RT-PCR (qRT-PCR) to evaluate gene expression for type 1 interferon IFNB1, chemokine CXCL10, and cytokines TSLP and IL6 in NHEKs treated with selected LL-34 parent, LL-34—F5A, I24A, F27A, and L31A—peptides either alone or in combination with U1 dsRNA for 18 h (Fig. 1, E–H).
RNA extracted from cells (Pure Link RNA Isolation Kit; Life Technologies) was quantified on the Nanodrop 2000/200C Spectrophotometer (Thermo Fisher Scientific). About 500 ng of purified RNA was used to synthesize complementary DNA with iScript cDNA Synthesis Kit (Bio-Rad). Predeveloped Taqman (Thermo Fisher Scientific) gene expression assays were used to evaluate mRNA transcript levels. Taqman cycling conditions were used as previously described ([9], [45]). All experiments were performed on a CFX96 system (Bio-Rad). Fold change relative to GAPDH was calculated using the Livak ΔΔCt method ([46]).

Compound	IL-6 protein secretion, cotreatment with U1 dsRNA, vs U1 dsRNA + LL-34 parent [1]	Gene expression of IL6, IFNB1, and CXCL10, cotreatment with U1 dsRNA [2]	Gene expression of TSLP, peptide alone [2]	Basal expression of IL6, IFNB1, and CXCL10, peptide alone [2]
CC[C@H](C)[C@H](NC(=O)[C@H](CCCCN)NC(=O)[C@H](CCC(=O)O)NC(=O)[C@H](CCCCN)NC(=O)[C@H](CO)NC(=O)[C@H](CCCCN)NC(=O)[C@H](CCCNC(=N)N)NC(=O)[C@H](Cc1ccccc1)NC(=O)[C@H](Cc1ccccc1)NC(=O)[C@H](CC(=O)O)NC(=O)CNC(=O)[C@H](CC(C)C)NC(=O)[C@@H](N)CC(C)C)C(=O)NCC(=O)N[C@@H](CCCCN)C(=O)N[C@@H](CCC(=O)O)C(=O)N[C@@H](Cc1ccccc1)C(=O)N[C@@H](CCCCN)C(=O)N[C@@H](CCCNC(=N)N)C(=O)N[C@H](C(=O)N[C@H](C(=O)N[C@@H](CCC(N)=O)C(=O)N[C@@H](CCCNC(=N)N)C(=O)N[C@@H](C)C(=O)N[C@@H](CCCCN)C(=O)N[C@@H](CC(=O)O)C(=O)N[C@@H](Cc1ccccc1)C(=O)N[C@@H](CC(C)C)C(=O)N[C@@H](CCCNC(=N)N)C(=O)N[C@@H](CC(N)=O)C(=O)N[C@@H](CC(C)C)C(=O)N[C@H](C(=O)N1CCC[C@H]1C(=O)N[C@@H](CCCNC(=N)N)C(=O)O)C(C)C)C(C)C)[C@@H](C)CC [LL-34—I24A] (H-LLGDFFRKSKEKIGKEFKRIVQRAKDFLRNLVPR-OH)	reduced secretion of IL-6 protein	reduction in gene expression	increased gene expression of TSLP	not affected
CC[C@H](C)[C@H](NC(=O)[C@H](CCCCN)NC(=O)[C@H](CCC(=O)O)NC(=O)[C@H](CCCCN)NC(=O)[C@H](CO)NC(=O)[C@H](CCCCN)NC(=O)[C@H](CCCNC(=N)N)NC(=O)[C@H](Cc1ccccc1)NC(=O)[C@H](Cc1ccccc1)NC(=O)[C@H](CC(=O)O)NC(=O)CNC(=O)[C@H](CC(C)C)NC(=O)[C@@H](N)CC(C)C)C(=O)NCC(=O)N[C@@H](CCCCN)C(=O)N[C@@H](CCC(=O)O)C(=O)N[C@@H](Cc1ccccc1)C(=O)N[C@@H](CCCCN)C(=O)N[C@@H](CCCNC(=N)N)C(=O)N[C@H](C(=O)N[C@H](C(=O)N[C@@H](CCC(N)=O)C(=O)N[C@@H](CCCNC(=N)N)C(=O)N[C@H](C(=O)N[C@@H](CCCCN)C(=O)N[C@@H](CC(=O)O)C(=O)N[C@@H](Cc1ccccc1)C(=O)N[C@@H](CC(C)C)C(=O)N[C@@H](CCCNC(=N)N)C(=O)N[C@@H](CC(N)=O)C(=O)N[C@@H](C)C(=O)N[C@H](C(=O)N1CCC[C@H]1C(=O)N[C@@H](CCCNC(=N)N)C(=O)O)C(C)C)[C@@H](C)CC)C(C)C)[C@@H](C)CC [LL-34—L31A] (H-LLGDFFRKSKEKIGKEFKRIVQRIKDFLRNAVPR-OH)	reduced secretion of IL-6 protein	reduction in gene expression	increased gene expression of TSLP	not affected
